Results from article PMC2364081, “Antagonists of retinoic acid receptors (RARs) are potent growth inhibitors of prostate carcinoma cells” (British Journal of Cancer, 2001).

How the values were obtained:
[1] = test system: FBS-grown LNCaP, DU145 and PC3 cells; assay: Plate colony formation assay, stated over the three FBS-grown lines; type: cell-based, human; settings: 100 nM
Text: (§1) Prostate cancer is one of the most common cancers in European and American males and has a high mortality rate (Landis et al, 1998; Rosenthal, 1998). Early disease is managed conservatively in Europe although in selected patients surgery is curative. In advanced disease, androgen ablation can produce symptomatic improvement, but the tumour often re-emerges in an androgen- independent and incurable form. One proposed treatment for androgen-independent prostate carcinoma is differentiation ther- apy, in which agents such as all-trans-retinoic acid (ATRA), 9-cis- retinoic acid and 1, 25-dihydroxyvitamin D3 (D3 ) are used to induce growth arrest, differentiation and sometimes apoptosis of the tumour cells (Liang et al, 1999; de Vos et al, 1997; Skowronski et al, 1994; Hedlund et al, 1997). ATRA and synthetic analogues exert their biological effects by binding to two families of retinoid receptors, […]. These are ligand-dependent transcription factors of the steroid/thyroid hormone nuclear receptor superfamily (Chambon 1994; Boehm et al, 1995). Activated RARs bind to retinoic acid-responsive elements (RAREs) in the promoters of genes and thus regulate gene expression. They also antagonize the activity of the tran- scription factor AP1 and thereby down-regulate the expression of some AP1-activated genes (Nagpal et al, 1995). […]

[2] = test system: LNCaP, PC3 and DU145 cells; assay: Plate colony formation assay, stated over the three serum-free grown lines; type: cell-based, human
Text: (§2) Prostate cancer is one of the most common cancers in European and American males and has a high mortality rate (Landis et al, 1998; Rosenthal, 1998). Early disease is managed conservatively in Europe although in selected patients surgery is curative. In advanced disease, androgen ablation can produce symptomatic improvement, but the tumour often re-emerges in an androgen- independent and incurable form. One proposed treatment for androgen-independent prostate carcinoma is differentiation ther- apy, in which agents such as all-trans-retinoic acid (ATRA), 9-cis- retinoic acid and 1, 25-dihydroxyvitamin D3 (D3 ) are used to induce growth arrest, differentiation and sometimes apoptosis of the tumour cells (Liang et al, 1999; de Vos et al, 1997; Skowronski et al, 1994; Hedlund et al, 1997). ATRA and synthetic analogues exert their biological effects by binding to two families of retinoid receptors, […]. These are ligand-dependent transcription factors of the steroid/thyroid hormone nuclear receptor superfamily (Chambon 1994; Boehm et al, 1995). Activated RARs bind to retinoic acid-responsive elements (RAREs) in the promoters of genes and thus regulate gene expression. They also antagonize the activity of the tran- scription factor AP1 and thereby down-regulate the expression of some AP1-activated genes (Nagpal et al, 1995). One approach to unravelling the contributions of RAR sub-types to these actions has been the development of synthetic retinoids with selective activities at individual RARs and RXRs. For example, the diaryl- acetylenic retinoids allow separation of transactivation and AP1 antagonism functions at RAR (Nagpal et al, 1995). Recently, compounds that are selective for particular RAR sub-types have been synthesized: these include both agonists and antagonists (Chandraratna, 1995; Teng et al, 1999; Johnson et al, 1999). The functional selectivity of these compounds may open the way to achieving differentiation or apoptosis of tumour cells with minimal systemic side effects (Chandraratna, 1995). Cell lines that are commonly used in the evaluation of investiga- tional agents for prostate cancer include LNCaP, DU-145 and PC- 3. […] These lines are relatively insensitive to growth inhibition and induction of apoptosis by ATRA and by synthetic agonists. […] Fenretinide (4HPR) induces apoptosis of LNCaP and of PC-3 cells at 1-5 M and 25 µM, respectively (Pienta et al, 1993; Heish and Wu, 1997). Pfahl and colleagues examined the growth inhibitory effects of a panel of receptor-selective retinoids against DU145 and PC-3 cells and achieved complete growth inhibition and induction of apoptosis between 1 M and 10 M (Lu et al, 1999). […] Antagonists of retinoic acid receptors (RARs) are potent growth inhibitors of prostate carcinoma cells LA Hammond1 , CH Van Krinks2 , J Durham2 , SE Tomkins2 , RD Burnett3 , EL Jones1 , RAS Chandraratna3 and G Brown2 Divisions of 1 Cancer Studies and of 2 Immunity and Infection, University of Birmingham Medical School, Edgbaston, Birmingham B15 2TT, UK and 3 Retinoid Research, Allergan Inc., Irvine, California, USA Summary Novel synthetic antagonists of retinoic acid receptors (RARs) have been developed. To avoid interference by serum retinoids when testing these compounds, we established serum-free grown sub-lines (>3 years) of the prostate carcinoma lines LNCaP, PC3 and DU145. […] A component(s) of serum and of LNCaP-conditioned medium diminishes the activity of antagonists: this factor is not the most likely candidates IGF-1 and EGF. In vitro studies of RAR antagonists together with data from RAR-null mice lead to the hypothesis that RAR-regulated gene transcription is necessary for the survival and maintenance of prostate epithelium. […]

RARα = biological target: T1, RARα (Homo sapiens, UniProt P10276); assay: Binding to baculovirus-expressed RARα; design: made in house; settings: baculovirus-expressed receptor
T1 sequence (P10276 1-462): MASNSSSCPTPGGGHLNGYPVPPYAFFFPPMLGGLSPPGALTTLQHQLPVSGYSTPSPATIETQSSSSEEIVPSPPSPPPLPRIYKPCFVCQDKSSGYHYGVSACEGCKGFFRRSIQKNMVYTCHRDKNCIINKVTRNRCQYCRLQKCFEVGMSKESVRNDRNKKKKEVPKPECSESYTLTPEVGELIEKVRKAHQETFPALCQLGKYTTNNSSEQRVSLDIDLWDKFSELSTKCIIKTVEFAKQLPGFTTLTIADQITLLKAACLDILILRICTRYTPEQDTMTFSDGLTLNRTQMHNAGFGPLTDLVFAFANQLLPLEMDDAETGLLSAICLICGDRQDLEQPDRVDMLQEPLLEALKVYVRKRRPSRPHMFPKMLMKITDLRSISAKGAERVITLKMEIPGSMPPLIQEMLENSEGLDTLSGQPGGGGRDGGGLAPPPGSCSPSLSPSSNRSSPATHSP
Text: as §2

HL60 cells = assay: Clonal growth of single serum-free grown HL60 cells in microtitre wells; type: cell-based, human
Text: as §2

DU145 ITS+ cells = assay: Plate colony formation assay, serum-free (ITS+)-grown DU145; type: cell-based, human; settings: 14 days
Text: (§3) Prostate cancer is one of the most common cancers in European and American males and has a high mortality rate (Landis et al, 1998; Rosenthal, 1998). Early disease is managed conservatively in Europe although in selected patients surgery is curative. In advanced disease, androgen ablation can produce symptomatic improvement, but the tumour often re-emerges in an androgen- independent and incurable form. One proposed treatment for androgen-independent prostate carcinoma is differentiation ther- apy, in which agents such as all-trans-retinoic acid (ATRA), 9-cis- retinoic acid and 1, 25-dihydroxyvitamin D3 (D3 ) are used to induce growth arrest, differentiation and sometimes apoptosis of the tumour cells (Liang et al, 1999; de Vos et al, 1997; Skowronski et al, 1994; Hedlund et al, 1997). ATRA and synthetic analogues exert their biological effects by binding to two families of retinoid receptors, the RARs (RAR, RAR and RAR) and the RXRs (RXR, RXR and RXR). These are ligand-dependent transcription factors of the steroid/thyroid hormone nuclear receptor superfamily (Chambon 1994; Boehm et al, 1995). Activated RARs bind to retinoic acid-responsive elements (RAREs) in the promoters of genes and thus regulate gene expression. They also antagonize the activity of the tran- scription factor AP1 and thereby down-regulate the expression of some AP1-activated genes (Nagpal et al, 1995). One approach to unravelling the contributions of RAR sub-types to these actions has been the development of synthetic retinoids with selective activities at individual RARs and RXRs. For example, the diaryl- acetylenic retinoids allow separation of transactivation and AP1 antagonism functions at RAR (Nagpal et al, 1995). Recently, compounds that are selective for particular RAR sub-types have been synthesized: these include both agonists and antagonists (Chandraratna, 1995; Teng et al, 1999; Johnson et al, 1999). The functional selectivity of these compounds may open the way to achieving differentiation or apoptosis of tumour cells with minimal systemic side effects (Chandraratna, 1995). […]

PC3 ITS+ cells = assay: Plate colony formation assay, serum-free (ITS+)-grown PC3; type: cell-based, human; settings: 14 days
Text: as §3

LNCaP ITS+ cells = assay: Plate colony formation (clonal proliferation) assay, serum-free (ITS+)-grown LNCaP; type: cell-based, human
Text: as §2

[3] = test system: primary prostate carcinoma cells; assay: Growth of primary prostate carcinoma cells (flask cultures, passage 2); type: cell-based, human; settings: 10 and 100 nM, two patients, days 3 and 6
Text: as §1

CCc1ccc(C2=CC(C)(C)Sc3ccc(C#Cc4ccc(C(=O)O)cc4)cc32)cc1 [AGN194310]
inhibition of colony formation [1]: 11-23%
colony formation (% of control) ([2]; 100 nM, ITS+-grown cells, all three cell lines): 3-7%
fold more potent than ATRA ([2]; against cell lines, serum-free): 12–22 fold
IC50 ([2]; stated over all three serum-free grown lines, read-out: concentration inhibiting colony formation by 50% (IC50)): 16 to 34 nM
Kd (RARα): 3 nM
effect on clonal growth of HL60 cells (HL60 cells): did not adversely affect
viability of the single cells (HL60 cells; 0.1 µM): > 95%
number of viable cells at day 4 (HL60 cells; 100 nM, control 18): 17
cloning efficiency (HL60 cells; 100 nM, same as untreated): 90-93%
IC50 (DU145 ITS+ cells): 34 nM
IC50 (PC3 ITS+ cells): 18 nM
growth inhibitory effect in combination with TTNPB (LNCaP ITS+ cells; 50 nM AGN194310 together with 100 nM TTNPB): almost complete reversal
colony formation (% of control values) (LNCaP ITS+ cells; 50 nM alone (Figure 3)): 41%
colony formation (% of control values) (LNCaP ITS+ cells; 100 nM AGN194310 together with 100 nM TTNPB): 40%
colony formation (% of control values) (LNCaP ITS+ cells; 100 nM alone (Figure 3)): 14%
colony formation (% of control) (LNCaP ITS+ cells; 100 nM, ITS+ cells plated in ITS+ medium (Figure 5A)): < 1%
growth inhibitory activity in LNCaP-conditioned medium (LNCaP ITS+ cells; 100 nM, LNCaP ITS+ cells plated in LNCaP-conditioned medium): abrogated
inhibition of colony formation (LNCaP ITS+ cells; 100 nM, with EGF at 1, 10 and 20 ng/ml): > 95%
IC50 (LNCaP ITS+ cells; LNCaP, serum-free (ITS+), 14 days): 16 nM
concentration required to attain maximum growth inhibition (LNCaP ITS+ cells; colony assay): 100 nM
cell growth of primary lines [3]: substan- tial growth inhibition
